The text below walks through data of patent publication US11396517B1, “Exo-aza spiro inhibitors of menin-MLL interaction” (Janssen Pharmaceutica NV, priority 2017, dated 2022).

The experiment concerns the target T1, menin (Homo sapiens, UniProt O00255, T541A).
T1 construct: Menin (a.a. 1-610-6×his tag)
T1 sequence (O00255 with tags, fused parts or gaps T541A): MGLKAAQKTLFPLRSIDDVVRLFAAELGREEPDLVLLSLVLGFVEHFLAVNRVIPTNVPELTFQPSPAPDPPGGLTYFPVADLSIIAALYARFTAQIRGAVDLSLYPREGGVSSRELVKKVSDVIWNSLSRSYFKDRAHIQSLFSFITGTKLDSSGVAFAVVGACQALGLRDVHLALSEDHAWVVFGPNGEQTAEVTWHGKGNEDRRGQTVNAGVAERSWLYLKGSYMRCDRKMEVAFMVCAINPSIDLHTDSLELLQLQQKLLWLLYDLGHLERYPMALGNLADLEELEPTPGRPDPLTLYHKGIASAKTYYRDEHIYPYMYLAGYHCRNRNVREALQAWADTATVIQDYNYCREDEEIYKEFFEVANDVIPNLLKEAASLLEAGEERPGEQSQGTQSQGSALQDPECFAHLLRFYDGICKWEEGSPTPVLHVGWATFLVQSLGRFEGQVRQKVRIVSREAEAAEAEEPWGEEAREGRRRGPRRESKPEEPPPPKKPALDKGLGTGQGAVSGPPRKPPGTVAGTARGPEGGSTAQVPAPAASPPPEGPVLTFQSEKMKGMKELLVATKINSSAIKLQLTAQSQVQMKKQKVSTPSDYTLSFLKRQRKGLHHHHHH
The experiment can be described thus: Menin/MLL homogenous time-resolved fluorescence (HTRF) assay. In kind it is binding. As for the experimental part:
2) Menin/MLL Homogenous Time-Resolved Fluorescence (HTRF) Assay
To an untreated, white 384-well microtiter plate was added 40 nL 200× test compound in DMSO and 4 μL 2× terbium chelate-labeled menin (vide infra for preparation) in assay buffer (40 mM Tris HCl, pH 7.5, 50 mM NaCl, 1 mM DTT and 0.05% Pluronic F-127). After incubation of test compound and terbium chelate-labeled menin for 5 min at ambient temperature, 4 μL 2× FITC-MBM1 peptide (FITC-β-alanine-[…]-NH2 (SEQ ID NO: 23)) in assay buffer was added, the microtiter plate centrifuged at 1000 rpm for 1 min and the assay mixtures incubated for 15 min at ambient temperature. The relative amount of menin.FITC-MBM1 complex present in an assay mixture is determined by measuring the homogenous time-resolved fluorescence (HTRF) of the terbium/FITC donor/acceptor fluorphore pair using a BMG Pherastar plate reader (ex. 337 nm/terbium em. 490 nm/FITC em. 520 nm) at ambient temperature. The degree of fluorescence resonance energy transfer (the HTRF value) is expressed as the ratio of the fluorescence emission intensities of the FITC and terbium fluorophores (Fern 520 nm/Fem 490 nm). The final concentrations of reagents in the binding assay are […] terbium chelate-labeled menin (location 2), 75 nM FITC-MBM1 peptide and 0.5% DMSO in assay buffer. Dose-response titrations of test compounds are conducted using an 11 point, three-fold serial dilution scheme, starting typically at 25 μM (location 1) or starting typically at 10 μM (location 2).
Compound potencies were determined by first calculating % inhibition at each compound concentration according to equation 1: % inhibition=((HC−LC)−(HTRF^compound−LC))/(HC−LC))*100 (Eqn 1)
Where LC and HC are the HTRF values of the assay in the presence or absence of a saturating concentration of a compound that competes with FITC-MBM1 for binding to menin, and HTRF^compound is the measured HTRF value in the presence of the test compound. FTC and LC HTRF values represent an average of at least 16 replicates per plate.
Where Bottom and Top are the lower and upper asymptotes of the dose-response curve, respectively, IC50 is the concentration of compound that yields 50% inhibition of signal and h is the Hill coefficient.
Preparation of Terbium cryptate labeling of Menin: Menin (a.a. 1-610-6×his tag (“6×his” disclosed as SEQ ID NO: 3)) was labeled with terbium cryptate as follows. 2 mg of Menin was buffer exchanged into 1× phosphate buffered saline. 16 uM Menin was incubated with 4-fold molar excess NHS-terbium cryptate (Cisbio Bioassays, Bedford, Mass.) for 2 hours at room temperature. The labeled protein was purified away from free label by running the reaction over a Superdex 200 Increase 10/300 GL column at 0.75 ml/min. Peak fractions were collected, aliquoted and frozen at −80° C.

Where [1] appears, read: location 1, read-out: (2) location 1 Menin HTRF assay (IC50 (nM)).
[2] abbreviates: location 2, read-out: (2) location 2 Menin HTRF assay (IC50 (nM)).

Where two headings read alike, the source gives them in different places.

Regarding `N#CCc1ccc(C(=O)NC2CC3(CCN(c4ncnc5sc(CC(F)(F)F)cc45)C3)C2)cc1` (mixture of isomers) [Compound 10], the IC50 runs as follows: under setting [1], 843 nM; under setting [2], 948 nM.
For the compound `CC(C)CN(C(=O)CCN1CCOCC1)C1CC2(CCN(c3ncnc4sc(CC(F)(F)F)cc34)C2)C1` (mixture of isomers) [Compound 52], the IC50 under setting [1] was found to be 555 nM.
For the compound `Fc1ccccc1NC1CC2(CCN(c3ncnc4sc(CC(F)(F)F)cc34)C2)C1` (mixture of isomers) [Compound 156], the IC50 under setting [2] was 155 nM.
Still for that read-out and setting: for `Fc1cccc(NC2CC3(CCN(c4ncnc5sc(CC(F)(F)F)cc45)C3)C2)c1` (mixture of isomers) [Compound 157] the value was 118 nM; for `FC(F)(F)Cc1cc2c(N3CCC4(CC(Nc5ccccc5Cl)C4)C3)ncnc2s1` (mixture of isomers) [Compound 159], 199 nM; for `FC(F)(F)Cc1cc2c(N3CCC4(CC(Nc5cccc(Cl)c5)C4)C3)ncnc2s1` (mixture of isomers) [Compound 160], 150 nM.
The same measure, in the same setting: to `FC(F)(F)Cc1cc2c(N3CCC4(CC(Nc5ccc(Cl)cc5)C4)C3)ncnc2s1` (mixture of isomers) [Compound 161] belongs 101 nM; to `Cc1ccccc1NC1CC2(CCN(c3ncnc4sc(CC(F)(F)F)cc34)C2)C1` (mixture of isomers) [Compound 165], 656 nM.
Still for that read-out and setting: to `Cc1cccc(NC2CC3(CCN(c4ncnc5sc(CC(F)(F)F)cc45)C3)C2)c1` (mixture of isomers) [Compound 166] belongs 400 nM; to `Cc1ccc(NC2CC3(CCN(c4ncnc5sc(CC(F)(F)F)cc45)C3)C2)cc1` (mixture of isomers) [Compound 167], 98.1 nM; to `N#CCc1cccc(NC2CC3(CCN(c4ncnc5sc(CC(F)(F)F)cc45)C3)C2)c1` (mixture of isomers) [Compound 173], 127 nM.
Regarding `CN(CC1CC2(CCN(c3ncnc4sc(CC(F)(F)F)cc34)C2)C1)c1cnn(C)c1` (mixture of isomers) [Compound 197], the IC50 under setting [2] is 2350 nM.
The same measure, in the same setting: to `Cn1ncc2ccc(NC3CC4(CCN(c5ncnc6sc(CC(F)(F)F)cc56)C4)C3)cc21` (mixture of isomers) [Compound 206] belongs 224 nM; to `Cn1cnc2ccc(NC3CC4(CCN(c5ncnc6sc(CC(F)(F)F)cc56)C4)C3)cc21` (mixture of isomers) [Compound 207], 210 nM; to `Cc1noc2cc(NC3CC4(CCN(c5ncnc6sc(CC(F)(F)F)cc56)C4)C3)ccc12` (mixture of isomers) [Compound 215], 62 nM.
Same read-out and setting: for `CNc1nc(N2CCC3(CC(Nc4ccc5oc(=O)n(CCN6CCN(S(C)(=O)=O)CC6)c5c4)C3)C2)c2cc(CC(F)(F)F)sc2n1` (mixture of isomers) [Compound 248] the value was 348 nM.
Still for that read-out and setting: to `CS(=O)(=O)N1CCN(CCn2c(=O)oc3cc(NC4CC5(CCN(c6ncnc7sc(CC(F)(F)F)cc67)C5)C4)ccc32)CC1` (mixture of isomers) [Compound 249] belongs 272 nM.
Take `CN(C(=O)c1ccccc1)C1CC2(CCN(c3ncnc4sc(CC(F)(F)F)cc34)C2)C1` (mixture of isomers) [Compound 260]: the half-inhibitory concentration (IC50) under setting [2] was > 10000 nM.
As to `CS(=O)(=O)N1CCN(CCn2c(=O)oc3ccc(NC4CC5(CCN(c6ncnc7sc(CC(F)(F)F)cc67)C5)C4)cc32)CC1` (mixture of isomers) [Compound 270], the IC50 under setting [2] was determined as 518 nM.
On to `O=c1ccc(NC2CC3(CCN(c4ncnc5sc(CC(F)(F)F)cc45)C3)C2)c[nH]1` (mixture of isomers) [Compound 305], for which the IC50 under setting [2] came out at 148 nM.
`FC(F)(F)Cc1cc2c(N3CCC4(CC(Nc5cn[nH]c5)C4)C3)ncnc2s1` (mixture of isomers) [Compound 309]: the IC50 under setting [2] amounted to 339 nM.
`Cn1cc(NC2CC3(CCN(c4ncnc5sc(CC(F)(F)F)cc45)C3)C2)cn1` (mixture of isomers) [Compound 310]: the IC50 under setting [2] was > 10000 nM.
